The first test relates to total brain infarct models (gerbils, bilateral common carotid arteries obstructed for 15 minutes). The test can be described thus: Total brain infarct model, survival (Test Example 2). The following applies: 3 mg/kg intraperitoneally twice (60 min before obstruction, 90 min after reperfusion), n=11, vehicle group 0%, p<0.05. The test is classed as in vivo, gerbil. How it is done:
Mature male gerbils were divided into 2 groups and total brain infarct models were constructed by obstructing the bilateral common carotid arteries for 15 minutes (Nagisa et al., Basic Pharmacology & Therapeutics,23, 103-108, 1995). Control saline (vehicle) (Group A) and compound 2 (3 mg/kg) (Group B) were administered intraperitoneally twice, namely 60 minutes before obstruction and 90 minutes after reperfusion and the survival rates at 8 hours following reperfusion were compared between the groups. Intergroup comparison was made by ANOVA test (one-way analysis of variance).
As for `COc1ccccc1Oc1c(NS(=O)(=O)c2ccc(C(C)(C)C)cc2)nc(-c2ncccn2)nc1OCCO` [compound 2, 4-Tert-butyl-N-[6-(2-hydroxyethoxy)-5-(2-methoxyphenoxy)-2,2'-bipyrimidin-4-yl]-benzene sulfonamide], the “survival rate at 8 hours after reperfusion” value came out at 36%.

The subject of the next test is endothelin A receptor / endothelin B receptor / endothelin converting enzyme.
Experiment: not given
The following applies: ETA: endothelin A receptor; ETB: endothelin B receptor; ECE: endothelin converting enzyme (inhibition); from the literature cited in the tables; cited from earlier work.
For `COc1ccc(C(=O)C(Cc2ccccc2)=C(C(=O)O)c2ccc3c(c2)OCO3)cc1` [PD155080, 2-benzo(1,3)dioxol-5-yl-3-benzyl-4-(4-methoxyphenyl)-4-oxobut-2-enoate], the Selectivity entry is listed as “ETA”.

Turning to `CC(C)C[C@H](NP(=O)(O)CCc1ccc2ccccc2c1)C(=O)N[C@@H](Cc1c[nH]c2ccccc12)C(=O)O` [N-2-(2-naphthyl)ethyl-phosphonyl-L-Leu-L-Trp], the Selectivity result is given as “ECE”.

In the case of “Ac-D-Bhg-Leu-Asp-Ile-Ile-Trp.2Na [PD145065]”, the Selectivity entry is given as “ETA/ETB”.

`CC(=O)NC(CSC12CCC3(O)CC(C)=CC(=O)C3(O)C1(O)C(=O)c1cccc(O)c1C2=O)C(=O)O` (centres unmarked) [WS009A, 2-acetamido-3-[[1,4,4a,5,6,6a,7,12,12a,12b-decahydro-4a,8,12a,12b-tetra-hydroxy-3-methyl-1,7,12-trioxobenz[a]anthracen-6a-yl]-thio]propionic acid]: the Selectivity entry was “ETA”.

On to `CCCc1cc(C(=O)OC)ccc1CC(C(=O)NS(=O)(=O)c1ccc(C(C)C)cc1)c1ccc2c(c1)OCO2` (racemic) [L-751281, (±)N-[2-(3,4-methylenedioxyphenyl)-3-(4-carbomethoxy-2-propylphenyl)-propanoly]-4-(isopropyl)benzene sulphonamide], for which the Selectivity entry is “ETA”.

Consider `O=P(CN[C@@H](Cc1ccc(-c2ccccc2)cc1)c1nnn[nH]1)(Oc1ccccc1)Oc1ccccc1` [CGS-26393, diphenyl[(S)-2-diphenyl-4-yl-1-(1H-tetrazol-5-yl)-ethylamino-methyl] phosphonate], for which the Selectivity result was “ECE”.

“Dmpc-.tau.-MeLeu-D-Trp(1-CO2 CH3)-D-Nle-OH [BQ-788]”: the Selectivity entry is recorded as “ETB”.

As for “[Cys^11 -Cys^15 ]-ET-1(11-21) [IRL-1038]”, the Selectivity entry was “ETB”.

On to `CC1(C)CC[C@]2(C(=O)O)CC[C@]3(COC(=O)/C=C/c4ccc(O)c(O)c4)C(=CC[C@@H]4[C@@]5(C)CCC(=O)C(C)(C)[C@@H]5CC[C@]43C)[C@@H]2C1` [50-235, 27-O-caffeoyl myricerone], for which the Selectivity entry is recorded as “ETA”.

For `COc1ccccc1Oc1c(NS(=O)(=O)c2ccc(C(C)(C)C)cc2)nc(-c2ncccn2)nc1OCCO` [compound 2, 4-Tert-butyl-N-[6-(2-hydroxyethoxy)-5-(2-methoxyphenoxy)-2,2'-bipyrimidin-4-yl]-benzene sulfonamide], the Selectivity entry was “ETA/ETB”.

On to `CCCOc1ccc2c(c1)[C@@H](c1ccc(OC)cc1OCCO)[C@H](C(=O)O)[C@H]2c1ccc2c(c1)OCO2` [SB-217242, (+)-(1S,2R,3S)-3-[2-(2-hydroxyeth-1-yloxy)-4-methoxyphenyl]-1-(3,4-methylenedioxyphenyl)-5-(prop-1-yloxy)indan-2-carboxylic acid], for which the Selectivity result is “ETA/ETB”.

As to `COC(=O)c1cc(O)cc(OC)c1Oc1cc(C)cc(O)c1C(=O)O` [Asterric acid], the Selectivity result was “ETA”.

With “27-O-3-[2-(3-carboxy-acryloylamino)-5-hydroxyphenyl]-acryloyloxy myricerone, sodium salt [97-139]”, the Selectivity entry is on record as “ETA”.

cyc(D-Trp-D-Asp-Pro-D-Val-Leu) [BQ-123]: the Selectivity result is listed as “ETA”.

With `Cc1cc(C)cc(C(=O)N(C)[C@H](Cc2ccc(-c3ccno3)cc2)C(=O)N[C@@H](Cc2c[nH]c3ccccc23)C(=O)O)c1` [IRL2796, N-(3,5-dimethylbenzoyl)-N-methyl-(D)-[4-(5-isoxazolyl)-phenyl]-alanyl-L-tryptophan], the Selectivity entry is given as “ETB”.

As for “cyc(Gly-Asn-Trp-His-Gly-Thr-Ala-Pro-Asp)-Trp-Phe-Asn-Tyr-Tyr-Trp [RES-7011]”, the Selectivity entry is “ETB”.

As for `CC(C)C[C@H](NP(=O)(O)O[C@@H]1O[C@@H](C)[C@H](O)[C@@H](O)[C@H]1O)C(=O)N[C@@H](Cc1c[nH]c2ccccc12)C(=O)O` [Phosphoramidon, N-phosphonyl L-Leu-L-Trp], the Selectivity entry is given as “ECE”.

`COc1ccc(C(=O)C(Cc2cc(OC)c(OC)c(OC)c2)=C(C(=O)O)c2ccc3c(c2)OCO3)cc1` [PD156707, 2-benzo(1,3)dioxol-5-yl-4-(4-methoxyphenyl)-4-oxo-3-(3,4,5-trimethoxybenzyl)-but-2-enoate]: the Selectivity entry is given as “ETA”.

Regarding `CCCc1cc(C(=O)O)ccc1OC(C(=O)NS(=O)(=O)c1ccc(C(C)C)cc1)c1ccc2c(c1)OCO2` (racemic) [L-749329, (±)N-(4-isopropylbenzenesulphonyl)-α-(4-carboxy-2-n-propylphenoxy)-3,4-methylene dioxyphenyl acetamide], the Selectivity entry is listed as “ETA”.

For the compound `COc1ccc(-c2nc(NS(=O)(=O)c3ccc(C(C)(C)C)cc3)c(Oc3ccccc3OC)c(OC[C@@H](O)CO)n2)cc1` [Ro46-8443, 4-tert-butyl-N-[(S)6-(2,3-dihydroxypropoxy)-5-(2-methoxyphenoxy)-2-(4-methoxyphenyl)-pyrimidin-4-yl]-benzene sulphonamide], the Selectivity result is recorded as “ETB”.

On to `CC(C)C[C@H](NC(=O)N1CCCCCC1)C(=O)NC(Cc1cn(C)c2ccccc12)C(=O)N[C@H](Cc1ccccn1)C(=O)O` (stereo partly drawn) [FR139317, (R)-2-{(S)-2-([1-{hexahydro-1H-azepinyl}carbonyl]-amino-methyl-pentamoyl)}-amino-3-(3[1-methyl-1H-indolyl])propionylamino-3-(2-pyridyl)propionic acid], for which the Selectivity result is “ETA”.

Take `CC(C)C[C@H](NP(=O)(O)CC(O)CO)C(=O)N[C@@H](Cc1c[nH]c2ccccc12)C(=O)[O-].CC(C)C[C@H](NP(=O)(O)CC(O)CO)C(=O)N[C@@H](Cc1c[nH]c2ccccc12)C(=O)[O-].[Na+].[Na+]` (stereo partly drawn) [S-17162, N-(2,3 dihydroxy propyl phosphonyl)-(S)-Leu-(S)-Trp-OH, disodium salt]: the Selectivity result is given as “ECE”.

As for `CC(C)C[C@H](NC(=O)N1CCCCCC1)C(=O)N[C@H](Cc1cn(C)c2ccccc12)C(=O)N[C@H](Cc1ccc(O)cc1)C(=O)O` [PD151242, (N-[(hexahydro-1-azepinyl)carbonyl])-L-Leu(1-Me)D-Trp-D-Tyr], the Selectivity entry is “ETA”.

Turning to `Cc1cc(C)cc(C(=O)N(C)[C@H](Cc2ccc(-c3ccsc3)cc2)C(=O)N[C@@H](Cc2c[nH]c3ccccc23)C(=O)O)c1` [IRL2659, N-(3,5-dimethylbenzoyl)-N-methyl-(D)-[4-(3-thienyl)-phenyl]-alanyl-L-tryptophan], the Selectivity result is recorded as “ETB”.

Turning to `COc1cccc(Oc2c(NS(=O)(=O)c3ccc(C(C)(C)C)cc3)ncnc2OCCO)c1` [Ro46-2005, 4-tert-butyl-N-[6-(2-hydroxyethoxy)-5-(3-methoxyphenoxy)-4-pyrimidinyl]-benzenesulphonamide], the Selectivity result is “ETA/ETB”.

For the compound “cys(D-Sal-L-Pro-D-Val-L-Leu-D-Trp) [BQ-153]”, the Selectivity entry is on record as “ETA”.

Take `CCCOc1cccc(CC(C(=O)c2ccc(OC)cc2)=C(C(=O)O)c2ccc3c(c2)OCO3)c1` [PD155719, 2-(1,3-benzodioxol-5-yl)-4-(4-methoxyphenyl)-4-oxo-3[(3-propoxyphenyl)methyl]-2-butenoic acid]: the Selectivity entry is recorded as “ETA”.

With `Cc1noc(NS(=O)(=O)c2cccc3c(N(C)C)cccc23)c1C` [BMS-182874, 5-(dimethylamino)-N-(3,4-dimethyl-5-isoxazolyl)-1-naphthalene sulphonamide], the Selectivity result is “ETA”.

With `CCCCCOc1c(OC)cc(CC2=C(c3ccc4c(c3)OCO4)C(=O)OC2(O)c2ccc(OC)cc2)cc1OC` (centres unmarked) [PD160672, 3-benzo(1,3)dioxol-5-yl-(3,5-dimethoxy-4-pentyloxybenzyl)-5-hydroxy-5-(4-methoxyphenyl)-5H-furan-2-one], the Selectivity result is “ETA/ETB”.

Turning to `COc1cc(C2=C(CC3CCCCC3)C(O)(c3ccc4c(c3)OCCO4)OC2=O)cc2c1OCO2` (centres unmarked) [PD160874, 4-cryclohexyl-methyl-5-[2,3-dihydro-benzo(1,4)dioxin-6-yl]-5-hydroxy-3-[7-methoxybenzo(1,3)-dioxol-5-yl]-5H-furan-2-one], the Selectivity entry was “ETA/ETB”.

`Cc1cc(C)cc(C(=O)N(C)[C@H](Cc2ccc(-c3ccccc3)cc2)C(=O)N[C@@H](Cc2c[nH]c3ccccc23)C(=O)O)c1` [IRL2500, N-(3,5-dimethylbenzoyl)-N-methyl-(D)-[(4-phenyl)-phenyl]-alanyl-L-tryptophan]: the Selectivity entry is reported as “ETB”.

As for “Ac-D-Dip-Leu-Asp-Ile-Ile-Trp.2Na [PD142893]”, the Selectivity entry is listed as “ETA/ETB”.

With `O=P(O)(O)CN[C@@H](Cc1ccc(-c2ccccc2)cc1)c1nnn[nH]1` [CGS-26303, (S)-2-diphenyl-4-yl-1-(1H-tetrazol-5-yl)-ethylaminomethyl phosphonic acid], the Selectivity result is “ECE”.

For `CCCc1cc(C(=O)O)ccc1OC(C(=O)NS(=O)(=O)c1ccc(C(C)C)cc1)c1ccc2c(c1)OCO2` (single isomer, unassigned; (-)) [L-754142, (-)N-(4-isopropylbenzenesulphonyl)-α-(4-carboxy-2-n-propylphenoxy)-3,4-methylene dioxyphenyl acetamide], the Selectivity entry is on record as “ETA”.

These data come from patent US6251861A, “Treatment of cerebral infarction using cyclic hexapeptides” (Takeda Chemical Industries, Ltd., priority 1996, dated 2001).
